From patent publication US10906876B2, “Tetrahydroisoquinolines as selective NADPH oxidase 2 inhibitors” (University of Pittsburgh—Of the Commonwealth System of …, priority 2013, dated 2021)

The compounds below were run against T1, Nox4 (Homo sapiens, UniProt Q9NPH5) (assay: Constitutive Nox4 activity in transiently transfected COS-Nox4 cells, Amplex Red assay). Settings: COS-Nox4 cells.
T1 construct: Plasmids encoding full-length human cDNAs for Nox1 (pcDNA3.1-hNox1), NOXO1 (pcDNA3.1-hNOXO1), NOXA1 (pCMVsport 6-hNOXA1), p47phox (pCMV-Tag4A-hp47) and Nox4 (pcDNA3-hNox4); expressed in transfected cells; host or cells: COS-22 (COS-7 stably expressing human p22phox), transient transfection with pcDNA3.1/Hygro-hNox4
T1 sequence (Q9NPH5 1-578): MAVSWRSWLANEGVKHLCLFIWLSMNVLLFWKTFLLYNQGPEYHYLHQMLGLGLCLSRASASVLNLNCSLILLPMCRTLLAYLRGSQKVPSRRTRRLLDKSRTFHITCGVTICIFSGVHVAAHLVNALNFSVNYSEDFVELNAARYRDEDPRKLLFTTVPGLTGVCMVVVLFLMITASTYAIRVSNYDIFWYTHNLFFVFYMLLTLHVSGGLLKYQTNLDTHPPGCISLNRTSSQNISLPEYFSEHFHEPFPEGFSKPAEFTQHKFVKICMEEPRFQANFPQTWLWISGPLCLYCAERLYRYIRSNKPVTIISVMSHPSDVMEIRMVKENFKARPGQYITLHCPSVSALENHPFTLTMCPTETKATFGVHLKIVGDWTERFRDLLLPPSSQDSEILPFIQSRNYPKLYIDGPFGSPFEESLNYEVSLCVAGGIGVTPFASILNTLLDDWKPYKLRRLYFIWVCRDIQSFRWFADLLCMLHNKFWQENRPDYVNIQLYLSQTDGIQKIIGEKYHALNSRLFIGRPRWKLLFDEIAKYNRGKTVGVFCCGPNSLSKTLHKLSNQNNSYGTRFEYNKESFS
T1 sequence (P13498 2-195 partner limits assumed): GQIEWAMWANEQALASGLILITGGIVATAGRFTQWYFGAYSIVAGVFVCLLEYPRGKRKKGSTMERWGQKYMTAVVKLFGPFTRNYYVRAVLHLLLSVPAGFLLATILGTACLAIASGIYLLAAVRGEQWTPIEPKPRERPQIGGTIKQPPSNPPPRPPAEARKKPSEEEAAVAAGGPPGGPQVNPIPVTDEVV
Format: cell-based
Text: Plasmids encoding full-length human cDNAs for Nox1 (pcDNA3.1-hNox1), NOXO1 (pcDNA3.1-hNOXO1), NOXA1 (pCMVsport 6-hNOXA1), p47phox (pCMV-Tag4A-hp47) and Nox4 (pcDNA3-hNox4) were kindly provided by Dr. David Lambeth (Emory University, Ga.). Plasmids encoding Nox1, NOXO1, or NOXA1 were transformed and amplified into Escherichia coli strain TOP10 (Invitrogen, Carlsbad, Calif.). Plasmids were purified using a QIAfilter plasmid purification kit (QIAGEN Inc., Valencia, Calif.). For human Nox4 expression, the BglII/NotI restriction fragment from the pcDNA3-hNox4 was subcloned into the plasmid pcDNA3.1/Hygro(−) (Invitrogen, Carlsbad, Calif.) to generate pcDNA3.1/Hygro-hNox4. The fragment sequence, in-frame insertion and orientation were validated by DNA sequencing after PCR amplification. pcDNA3.1/Hygro-hNox4 was amplified into Escherichia coli strain TOP10 and purified with a QIAfilter plasmid purification kit.
Cell transfection was carried out using Lipofectamine LTX and Plus reagent (Invitrogen, Carlsbad, Calif., USA), according to the manufacturer's instructions. COS-22 cells were transiently co-transfected with pcDNA 3.1-hNox1, pCMVsport 6-hNOXA1 and pcDNA3.1-hNoxO1 (COS-Nox1/NOXO1/NOXA1 cells) or with pcDNA3.1/Hygro-hNox4 (COS-Nox4 cells). Cells were used 24 hr after transfection. Adherent cells were harvested by incubating with 0.05% trypsin/EDTA for 5 min at 37° C. Following addition of DMEM/10% FBS to neutralize the trypsin, the cells were pelleted by centrifugation at 1100×g for 5 min at 4° C. and used for the experiments.
H2O2 production was quantified in intact COS-Nox4 cells by Amplex® Red. Briefly, COS-Nox4 cells (5×10^4 cells/ml) were re-plated into 384-well plate in assay buffer (25 mM Hepes, pH 7.4, containing 0.12 M NaCl, 3 mM KCl, 1 mM MgCl2). The cells were incubated in the presence or absence of drugs at 37° C. in assay buffer supplemented with 0.1 mM Amplex® Red, and 0.32 U/ml of horse radish peroxidase (HRP) for 15 min. Fluorescence measurements were made using a Biotek Synergy 4 Hybrid Multi-Mode Microplate Reader with a 530/25-excitation and a 590/35-emission filter. The reaction was monitored at 37° C. for 1 h. A standard curve of known H2O2 concentrations was included on each plate. Nox4 activity was obtained by calculating the rate of H2O2 production as RFU/min and then subtracting the equivalent value given by non-transfected COS-22 cells. Similarly, H2O2 production by Nox2 cells was also measured by Amplex® Red as described above but in the presence of 150 U/mL of SOD and the reaction was initiated by addition of 5 μM PMA. The rate of H2O2 production in this case was calculated as RFU/min after the subtraction of the equivalent value given by non-stimulated cells. Data are expressed as % of vehicle control.
All data are expressed as means±SEM. IC50 values were determined using the GraphPad Prism software (GraphPad Software, San Diego, Calif.) for non-linear regression three-parameters, with constrain values of 100 and 0 for top and bottom, respectively, and assumes a Hill slope of 1.

SMILES | Nox4 inhibitory activity
C=C(C)CC1NC2CC(C)(C)C1c1c(Br)cccc12 (racemic) [Compound 7, (±)-(1S,4R,9S)-5-Bromo-3,3-dimethyl-9-(2-methylallyl)-1,2,3,4-tetrahydro-1,4-(epimino-methano)-naphthalene] | inactive
C=C(C)CC1NC2CC(C)(C)C1c1ccccc12 (racemic) [Compound 8, (±)-(1S,4R,9S)-3,3-Dimethyl-9-(2-methylallyl)-1,2,3,4-tetrahydro-1,4-(epiminomethano)-naphthalene] | inactive
C=C(C)CC1C2c3c(Br)cccc3C(CC2(C)C)N1CCCCC (racemic) [Compound 11g, (±)-(1S,4R,9S)-5-Bromo-3,3-dimethyl-9-(2-methylallyl-10-pentyl-1,2,3,4-tetrahydro-1,4-(epiminomethano)naphthalene] | virtually no effect
C=C(C)CC1C2c3c(Br)cccc3C(CC2(C)C)N1Cc1cccs1 (racemic) [Compound 11h, (±)-(1S,4R,9S)-5-Bromo-3,3-dimethyl-9-(2-methylallyl)-10-(thiophen-2-ylmethyl)-1,2,3,4-tetrahydro-1,4-(epiminomethano)naphthalene] | virtually no effect

Same assay, conditions: constitutive activity, transiently transfected COS-Nox4 cells, read-out: IC50 of ROS generation, Nox4 (Amplex Red assay)

IC50 [µM] | SMILES
> 100 | C=C(C)CC1C2c3ccccc3C(CC2(C)C)N1Cc1cccc(F)c1 (racemic) [Compound 11a, (±)-(1S,4R,9S)-10-(3-Fluorobenzyl)-3,3-dimethyl-9-(2-methylallyl)-1,2,3,4-tetrahydro-1,4-(epiminomethano)naphthalene]
> 100 | C=C(C)CC1C2c3c(Br)cccc3C(CC2(C)C)N1Cc1ccc2c(c1)OCO2 (racemic) [Compound 11d, (±)-(1S,4R,9S)-10-(Benzo[d][1,3]dioxol-5-ylmethyl)-5-bromo-3,3-dimethyl-9-(2-methylallyl)-1,2,3,4-tetrahydro-1,4-(epiminomethano)naphthalene]
> 100 | C=C(C)CC1C2c3c(Br)cccc3C(CC2(C)C)N1Cc1cc(C)on1 (racemic) [Compound 11e, (±)-3-(1S,4R,9S)-5-Bromo-3,3-dimethyl-9-(2-methylallyl)-1,2,3,4-tetrahydro-1,4-(epimino-methano) naphthalen-10-yl)methyl)-5-methylisoxazole]
> 100 | C=C(C)CC1C2c3c(Br)cccc3C(CC2(C)C)N1Cc1cccc(F)c1 (racemic) [Compound 11f, (±)-(1S,4R,9S)-5-Bromo-10-(3-fluorobenzyl)-3,3-dimethyl-9-(2-methylallyl)-1,2,3,4-tetrahydro-1,4-(epiminomethano)naphthalene]
> 100 | C=C(C)CC1C2c3c(Br)cccc3C(CC2(C)C)N1CCCCC (racemic) [Compound 11g, (±)-(1S,4R,9S)-5-Bromo-3,3-dimethyl-9-(2-methylallyl-10-pentyl-1,2,3,4-tetrahydro-1,4-(epiminomethano)naphthalene]
> 100 | C=C(C)CC1NC2CC(C)(C)C1c1c(-c3ccc(Cl)c(Cl)c3)cccc12 (racemic) [Compound 12a, (±)-(1S,4R,9S)-5-(3,4-Dichlorophenyl)-3,3-dimethyl-9-(2-methylallyl)-1,2,3,4-tetrahydro-1,4-(epiminomethano)naphthalene]
> 100 | C=C(C)CC1C2c3c(-c4ccc(Cl)c(Cl)c4)cccc3C(CC2(C)C)N1CCCCC (racemic) [Compound 12c]
> 100 | C=C(C)CC1C2c3c(Br)cccc3C(CC2(C)C)N1S(C)(=O)=O (racemic) [Compound 14a, (±)-(1S,4R,9S)-5-Bromo-3,3-dimethyl-9-(2-methylallyl)-10-(methylsulfonyl)-1,2,3,4-tetrahydro-1,4-(epiminomethano)naphthalene]

SMILES | IC50 [µM]
C=C(C)CC1NC2CC(C)(C)C1c1c(Br)cccc12 (racemic) [Compound 7, (±)-(1S,4R,9S)-5-Bromo-3,3-dimethyl-9-(2-methylallyl)-1,2,3,4-tetrahydro-1,4-(epimino-methano)-naphthalene] | > 100
CC(C)CC1NC2CC(C)(C)C1c1c(Br)cccc12 (racemic) [Compound 13] | > 100
